Source: paper PMC8315011, “The Spleen Tyrosine Kinase Inhibitor, Entospletinib (GS-9973) Restores Chemosensitivity in Lung Cancer Cells by Modulating ABCG2-mediated Multidrug Resistance” (International Journal of Biological Sciences, 2021)
pEC50: −log10 of the molar value.

Experiments:
ABCG2 [1] = biological target: T1, ABCG2 (Homo sapiens, UniProt Q9UNQ0)
T1 sequence (Q9UNQ0 1-655): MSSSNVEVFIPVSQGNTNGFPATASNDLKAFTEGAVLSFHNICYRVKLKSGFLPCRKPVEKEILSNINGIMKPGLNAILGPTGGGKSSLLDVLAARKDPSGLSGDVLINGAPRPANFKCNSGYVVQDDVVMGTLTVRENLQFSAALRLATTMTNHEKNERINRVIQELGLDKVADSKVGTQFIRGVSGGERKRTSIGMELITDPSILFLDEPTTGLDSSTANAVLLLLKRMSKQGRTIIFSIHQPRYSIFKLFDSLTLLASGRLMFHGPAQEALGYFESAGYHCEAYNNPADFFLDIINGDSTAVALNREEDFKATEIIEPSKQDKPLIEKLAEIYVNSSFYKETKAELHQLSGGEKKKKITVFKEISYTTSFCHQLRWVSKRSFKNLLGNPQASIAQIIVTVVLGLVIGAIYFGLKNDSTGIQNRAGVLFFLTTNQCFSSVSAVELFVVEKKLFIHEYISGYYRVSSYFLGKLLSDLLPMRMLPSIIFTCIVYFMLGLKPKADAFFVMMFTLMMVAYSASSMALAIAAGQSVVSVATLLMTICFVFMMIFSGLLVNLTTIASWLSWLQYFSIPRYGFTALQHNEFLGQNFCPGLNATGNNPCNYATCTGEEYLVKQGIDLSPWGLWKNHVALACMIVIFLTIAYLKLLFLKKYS

ABCG2 [2] = biological target: T1, ABCG2; test: ABCG2 ATPase stimulation in membrane vesicles ([…] of basal); supported by inhibition of [3H]-mitoxantrone efflux in NCI-H460/MX20 cells at […]; assay type: biochemical; parameters: membrane vesicles with ABCG2 (PREDEASY ATPase kit)

O=C1c2c(O)ccc(O)c2C(=O)c2c(NCCNCCO)ccc(NCCNCCO)c21 [mitoxantrone]
radiolabelled substrate accumulation and efflux, parental vs ABCG2-overexpressin (ABCG2 [1]): proving that the efflux of [^3H]-mitoxantrone was mediated by the ABCG2 transporter

c1cn2cc(-c3ccc4cn[nH]c4c3)nc(Nc3ccc(N4CCOCC4)cc3)c2n1 [GS-9973]
pEC50 (ABCG2 [2]): 6.38
